One sequence from US9932584B2, “Interfering RNA delivery system and uses thereof” (Arrowhead Pharmaceuticals Inc., priority 2012, dated 2018) can be followed below.

This assay has as its system PPIB mRNA. Nature of the assay: siRNA delivery with CPP-10H peptides, PPIB mRNA by Taqman qRT-PCR. The note with it: GTM-3 cells; for suppression of PPIB mRNA expression: PPIB siRNA complexed with peptide 20:1 peptide:siRNA, 1 hour, 48 hour post-transfection, normalized to β-actin mRNA, relative to non-treated cells. Type of assay: cell-based. The protocol:
The ability of 10 histidine residues (10H) to enhance endosomal release of siRNAs delivered using certain cell penetrating peptides (CPPs) was examined. […] (SEQ ID NO: 12). Peptidyl-prolyl cis-trans isomerase B (PPIB) siRNA and Non-Targeting siRNA #2 (NTC2) (Thermo Fisher Scientific, Dharmacon Products, Lafayette, Colo.) were complexed with TAT-10H, CTP-10H, and YM3-10H peptides (Abgent, Inc., San Diego, Calif.) at a 20:1 peptide: siRNA molar ratio for 30 minutes at room temperature, and applied to GTM-3 cells (Pang, I. H., et al., 1994 Curr Eye Res. 13:51-63) at a final siRNA concentration of 100-800 nM for 1 hour. PPIB mRNA and β-actin mRNA levels were determined by Taqman qRT-PCR assay (Applied Biosystems, Austin, Tex.) at 48 hour post-transfection (FIG. 1). Data were normalized to β-actin mRNA, and expressed relative to PPIB mRNA level in non-treated cells.
On the technique in general: In qPCR the cycle at which signal appears reflects the starting amount.

“CHHHHHGGRRARRRRRRHHGHHC (CHHHHHGGRRARRRRRRHHHHHC) [CTP-10H]”: the “non-specific silencing of PPIB mRNA expression with NTC2 control” value (NTC2 non-targeting siRNA delivered with peptide, 800 nM siRNA, possibly due to a cytotoxic effect) is “significant silencing”. In addition, the “suppression of PPIB mRNA expression” value (100 nM siRNA) is listed as ~80%, the “suppression of PPIB mRNA expression” value (200 nM siRNA) is ≥ 90% and the “suppression of PPIB mRNA expression” value (800 nM siRNA) is on record as ≥ 90%.
